Experimental data as given in patent US20090197944A1, “AGENT FOR IMPROVING MUSCLE FORCE” (KAO CORPORATION, priority 2006, published 2009).

Test system: isolated soleus muscle
Experiment: Electrical stimulation of isolated muscle (fatigue resistance)
Format: ex vivo tissue, mice
Details: 50 μM in Krebs solution, 37° C., equilibrated three minutes, stimulation 330 ms/2-sec, 40 Hz; vs control solution
Experimental: Mice were bred in a similar manner to that for the control group of Test Example 1. Thereafter, soleus muscle was removed from each mouse. The isolated soleus muscle was fixed to a transducer (FORT100, product of WPI) in 37° C. Krebs solution (aeration: 95%-oxygen, 5%-carbon dioxide). The effect of catechins on the isolated muscle was analyzed. Specifically, each of eight catechin species (catechin, epicatechin, gallocatechin, epigallocatechin, catechin gallate, epicatechin gallate, gallocatechin gallate, and epigallocatechin gallate) was dissolved in a Krebs solution to a concentration of 50 μM. Each muscle piece was equilibrated in each solution for three minutes, and electrically stimulated (330 ms/2-sec). The frequency of stimulation was 40 Hz. […] A Krebs solution to which no catechin species had been added was employed as a control solution.

SMILES | muscle force after 1 minute stimulation as fatigue index (ratio to muscle force at the start of electrical stimulation defined as 1)
O=C(O[C@@H]1Cc2c(O)cc(O)cc2O[C@@H]1c1ccc(O)c(O)c1)c1cc(O)c(O)c(O)c1 [epicatechin gallate] | improved muscle fatigue resistance
O=C(O[C@@H]1Cc2c(O)cc(O)cc2O[C@@H]1c1cc(O)c(O)c(O)c1)c1cc(O)c(O)c(O)c1 [epigallocatechin gallate] | improved muscle fatigue resistance
O=C(O[C@@H]1Cc2c(O)cc(O)cc2O[C@H]1c1cc(O)c(O)c(O)c1)c1cc(O)c(O)c(O)c1 [gallocatechin gallate] | improved muscle fatigue resistance
